Measurements reported in article PMC4140284, “Human UTY(KDM6C) Is a Male-specific N^ϵ-Methyl Lysyl Demethylase” (The Journal of Biological Chemistry, 2014).
Each block holds one compound with its values, some of them ahead of it.

How the values were obtained:
[1] = system: H3K27Me3 levels in HeLa cells; assay: Immunofluorescence of global H3K27Me3 levels on overexpression in HeLa cells; format: cell-based; conditions: exogenous overexpression in HeLa cells
Procedure: For cell-based experiments, HEK 293T and HeLa cells were cultured at 37 °C and 5% CO2 in DMEM (Lonza) supplemented with 10% fetal bovine serum (FBS) (Invitrogen) and 1% Glutamax (Invitrogen). For microscopy, HeLa cells were seeded into 96-well clear bottom optical grade plates (BD Biosciences) at 8000 cells/well and allowed to settle overnight. Transfections were carried out the next day. For each well, 0.1 μg of plasmid and 0.25 μl of Lipofectamine 2000 (Invitrogen) were each incubated in 25 μl of Opti-MEM (Invitrogen) for 5 min at room temperature. The two solutions were then mixed gently but thoroughly and incubated for 20 min at room temperature. The mixture was added to the cells in 50 μl of fresh medium. Four hours later, the medium was changed, and the cells were incubated for a further 24 h before fixation. Cells were fixed in 4% (v/v) aqueous formaldehyde for 20 min, permeabilized in 0.5% Triton X-100 in phosphate-buffered saline (PBS) for 8 min, and blocked in 3% (w/v) FBS in PBS for 1 h with a PBS wash between each step. The primary antibodies were then added to the cells in blocking solution. […] Luciferase activity was measured using the Promega Dual-Luciferase Reporter Assay System on a Promega GloMax 20/20 luminometer. Readings were normalized to a Renilla luciferase control that was co-transfected with all samples. […]

UTY(KDM6C) [2] = assay: Inhibition of H3K27Me3 peptide demethylation, UTY(KDM6C); format: biochemical, human; conditions: 10 μM inhibitor, 15 min preincubation, 20 min at 37 °C
Procedure: (§1) Reaction components were premixed in two batches ((i) enzyme, Fe(II), and ascorbate and (ii) 2OG and peptide), and reactions were initiated by mixing the enzyme and substrate mix. Reactions were incubated at 37 °C for the indicated times before being quenched with methanol in a 1:1 ratio.
(§2) For inhibition assays, the same enzyme/Fe(II)/ascorbate mixture was preincubated with 10 μM inhibitor for 15 min before the reaction was initiated by the addition of the peptide substrate solution. Reactions were quenched with 1:1 methanol after 20 min at 37 °C.
(§3) Product formation was assessed by MALDI-TOF MS. One microliter of quenched reaction was mixed with 1 μl of α-cyano-4-hydroxycinnamic acid and spotted onto a MALDI-TOF plate for analysis using a MALDI micro-MX mass spectrometer (Waters) in reflectron positive ion mode with pulse voltage 1250 V, detector voltage 2750 V, and mass suppression 1000 Da. Data were analyzed using MassLynx version 4.0. For inhibitor assays, inhibition levels were measured relative to an inhibitor-free reaction.

KDM6A [3] = molecular target: T1, KDM6A (Homo sapiens, UniProt O15550); assay: Inhibition of H3K27Me3 peptide demethylation, KDM6A; format: biochemical; conditions: 10 μM inhibitor, 15 min preincubation, 20 min at 37 °C
T1 construct: KDM6B and KDM6A plasmids were used as described previously; made in house; host or cells: Escherichia coli BL21 (DE3)
T1 sequence (O15550 whole entry): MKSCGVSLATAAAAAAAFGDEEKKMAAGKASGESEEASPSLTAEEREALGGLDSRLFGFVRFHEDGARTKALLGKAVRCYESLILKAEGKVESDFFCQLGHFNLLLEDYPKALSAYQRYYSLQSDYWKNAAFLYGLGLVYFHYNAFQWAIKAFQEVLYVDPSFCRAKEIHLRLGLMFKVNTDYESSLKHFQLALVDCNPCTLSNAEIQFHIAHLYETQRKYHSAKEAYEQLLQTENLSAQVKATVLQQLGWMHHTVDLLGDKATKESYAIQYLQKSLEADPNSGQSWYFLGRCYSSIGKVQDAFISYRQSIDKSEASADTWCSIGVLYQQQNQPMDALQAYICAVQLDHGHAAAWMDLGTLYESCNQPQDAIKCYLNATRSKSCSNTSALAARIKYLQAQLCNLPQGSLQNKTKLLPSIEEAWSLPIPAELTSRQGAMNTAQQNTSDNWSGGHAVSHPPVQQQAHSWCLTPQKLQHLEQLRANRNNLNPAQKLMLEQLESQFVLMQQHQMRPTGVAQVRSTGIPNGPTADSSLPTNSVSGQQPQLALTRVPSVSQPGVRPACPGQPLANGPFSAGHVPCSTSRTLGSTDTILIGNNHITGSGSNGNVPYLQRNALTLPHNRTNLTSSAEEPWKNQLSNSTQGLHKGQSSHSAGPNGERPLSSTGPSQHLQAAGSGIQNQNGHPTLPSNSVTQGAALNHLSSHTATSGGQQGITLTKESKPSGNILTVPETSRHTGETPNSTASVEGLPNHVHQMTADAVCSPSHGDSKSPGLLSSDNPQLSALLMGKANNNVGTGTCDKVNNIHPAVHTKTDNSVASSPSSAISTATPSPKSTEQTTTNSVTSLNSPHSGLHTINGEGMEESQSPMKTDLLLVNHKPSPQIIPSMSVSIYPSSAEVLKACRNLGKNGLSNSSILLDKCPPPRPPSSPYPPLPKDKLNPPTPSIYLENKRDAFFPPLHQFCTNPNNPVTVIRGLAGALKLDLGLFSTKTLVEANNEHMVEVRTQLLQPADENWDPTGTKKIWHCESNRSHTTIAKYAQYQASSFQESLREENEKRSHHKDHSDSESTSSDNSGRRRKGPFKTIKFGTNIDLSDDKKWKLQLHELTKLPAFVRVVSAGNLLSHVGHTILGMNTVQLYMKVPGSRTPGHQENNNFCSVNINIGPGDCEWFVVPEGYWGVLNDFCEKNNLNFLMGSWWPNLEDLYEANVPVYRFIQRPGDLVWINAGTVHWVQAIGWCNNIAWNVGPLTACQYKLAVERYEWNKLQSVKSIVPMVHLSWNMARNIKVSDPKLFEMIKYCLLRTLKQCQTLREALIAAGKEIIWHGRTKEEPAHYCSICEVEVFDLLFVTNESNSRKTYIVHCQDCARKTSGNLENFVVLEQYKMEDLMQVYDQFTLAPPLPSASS
Procedure: as §1, §2, §3

UTY(KDM6C) [4] = assay: Demethylation of histone peptides by MALDI-TOF MS, UTY(KDM6C); format: biochemical, human; conditions: UTY(KDM6C) 818–1347, 1 h at 37 °C
Procedure: as §1, §3
With catalytically active UTY(KDM6C) in hand, we then investigated whether a longer UTY(KDM6C) construct (residues 818–1347, herein UTY(KDM6C)) can act as a KDM. UTY(KDM6C) was incubated for 1 h at 37 °C with histone peptide fragments corresponding to known mono-, di-, and tri- lysine methylation sites of histone 3 (at Lys^4, Lys^9, Lys^27, and Lys^36) and histone 4 (at Lys^20) (Table 3). Demethylation was assessed by a mass spectrometric (MS) assay with mass shifts of −14 and −28 Da, corresponding to mono- and didemethylation, respectively. […] The predominant product was H3K27Me2, resulting from a single demethylation; a smaller amount of H3K27Me1 was observed as a result of didemethylation (Fig. 3C). Demethylation was dependent on the presence of Fe(II)/2OG.

KDM6A [5] = molecular target: T1, KDM6A; assay: Demethylation of histone peptide by MALDI-TOF MS, KDM6A; format: biochemical; conditions: KDM6A positive control
Procedure: as §1, §3
(§4) With catalytically active UTY(KDM6C) in hand, we then investigated whether a longer UTY(KDM6C) construct (residues 818–1347, herein UTY(KDM6C)) can act as a KDM. UTY(KDM6C) was incubated for 1 h at 37 °C with histone peptide fragments corresponding to known mono-, di-, and tri- lysine methylation sites of histone 3 (at Lys^4, Lys^9, Lys^27, and Lys^36) and histone 4 (at Lys^20) (Table 3). Demethylation was assessed by a mass spectrometric (MS) assay with mass shifts of −14 and −28 Da, corresponding to mono- and didemethylation, respectively. […]

KDM6B = molecular target: T2, KDM6B (Homo sapiens, UniProt O15054); assay: Demethylation of histone peptide by MALDI-TOF MS, KDM6B; format: biochemical; conditions: KDM6B positive control
T2 construct: KDM6B and KDM6A plasmids were used as described previously; made in house; host or cells: Escherichia coli BL21 (DE3)
T2 sequence (O15054 whole entry): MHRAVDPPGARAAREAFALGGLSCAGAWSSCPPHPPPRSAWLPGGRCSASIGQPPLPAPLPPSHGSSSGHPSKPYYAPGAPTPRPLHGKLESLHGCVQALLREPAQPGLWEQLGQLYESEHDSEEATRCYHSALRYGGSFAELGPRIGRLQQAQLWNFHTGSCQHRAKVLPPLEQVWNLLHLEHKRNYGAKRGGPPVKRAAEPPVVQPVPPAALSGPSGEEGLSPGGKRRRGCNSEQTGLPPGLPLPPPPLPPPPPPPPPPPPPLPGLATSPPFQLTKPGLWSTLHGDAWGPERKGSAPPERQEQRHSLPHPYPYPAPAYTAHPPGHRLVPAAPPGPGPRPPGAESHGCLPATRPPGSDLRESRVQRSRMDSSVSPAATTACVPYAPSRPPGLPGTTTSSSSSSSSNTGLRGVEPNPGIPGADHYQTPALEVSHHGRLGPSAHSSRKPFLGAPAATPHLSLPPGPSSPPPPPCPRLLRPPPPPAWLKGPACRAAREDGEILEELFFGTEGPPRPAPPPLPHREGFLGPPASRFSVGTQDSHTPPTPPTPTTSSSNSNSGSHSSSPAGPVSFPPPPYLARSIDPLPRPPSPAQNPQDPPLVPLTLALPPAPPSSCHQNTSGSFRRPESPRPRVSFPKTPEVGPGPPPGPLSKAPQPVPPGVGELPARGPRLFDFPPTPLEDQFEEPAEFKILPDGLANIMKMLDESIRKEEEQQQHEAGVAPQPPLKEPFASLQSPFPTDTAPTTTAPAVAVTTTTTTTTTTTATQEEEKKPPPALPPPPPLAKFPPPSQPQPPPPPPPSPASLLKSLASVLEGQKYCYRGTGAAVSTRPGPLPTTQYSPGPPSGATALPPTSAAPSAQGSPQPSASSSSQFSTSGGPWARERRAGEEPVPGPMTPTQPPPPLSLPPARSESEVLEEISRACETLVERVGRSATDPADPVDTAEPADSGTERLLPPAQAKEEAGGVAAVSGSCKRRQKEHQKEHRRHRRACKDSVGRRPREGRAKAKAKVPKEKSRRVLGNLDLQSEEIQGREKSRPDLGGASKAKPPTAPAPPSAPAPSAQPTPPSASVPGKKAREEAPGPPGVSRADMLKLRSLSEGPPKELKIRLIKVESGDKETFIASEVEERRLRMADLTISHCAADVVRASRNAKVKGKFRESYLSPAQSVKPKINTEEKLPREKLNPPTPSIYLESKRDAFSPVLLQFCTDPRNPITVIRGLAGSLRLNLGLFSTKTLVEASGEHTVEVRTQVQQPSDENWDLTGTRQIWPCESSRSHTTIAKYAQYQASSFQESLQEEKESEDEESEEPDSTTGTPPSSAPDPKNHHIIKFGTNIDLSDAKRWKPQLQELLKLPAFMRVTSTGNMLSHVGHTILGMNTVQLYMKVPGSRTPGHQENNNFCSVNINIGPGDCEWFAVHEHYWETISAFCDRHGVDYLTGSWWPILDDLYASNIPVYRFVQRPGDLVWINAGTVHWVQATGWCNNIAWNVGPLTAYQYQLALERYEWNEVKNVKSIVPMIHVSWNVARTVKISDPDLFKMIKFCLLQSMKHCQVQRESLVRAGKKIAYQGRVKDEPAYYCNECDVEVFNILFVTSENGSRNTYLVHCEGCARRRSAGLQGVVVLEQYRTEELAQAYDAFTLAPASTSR
Procedure: as §1, §3, §4

KDM6 = assay: Demethylation of histone peptide by 1H NMR, KDM6; format: biochemical, human; conditions: KDM6 catalyzed
From the text: The total echo time was 48 ms.

[6] = system: UTY(KDM6C) dephosphorylated in vitro using λ-phosphatase; assay: 2OG turnover by 1H NMR, dephosphorylated UTY(KDM6C); format: biochemical, human; conditions: UTY(KDM6C) dephosphorylated with λ-phosphatase, 10 μM, in 28 min
[7] = system: partially phosphorylated UTY(KDM6C); assay: 2OG turnover by 1H NMR, partially phosphorylated UTY(KDM6C); format: biochemical, human; conditions: 10 μM, in 28 min

Compound: FL WT KDM6B: full-length wild type KDM6B, positive control
change in global H3K27Me3 level [1]: a decrease was observed

potency rank among nine inhibitors (KDM6A [3]): most potent inhibitor
Compound: O=C(O)CCNc1cc(N2CCc3ccccc3CC2)nc(-c2ccccn2)n1 [GSK-J1]
potency rank among nine inhibitors (UTY(KDM6C) [2]): most potent inhibitor | inhibition of demethylation (UTY(KDM6C) [2]; H3K27Me3 peptide, MALDI MS): inhibition of UTY(KDM6C) activity by GSK-J1 was observed

demethylation (KDM6A [5]): demethylation was observed | demethylation (KDM6B): demethylation was observed
Compound: GGKAPRKQLATKAARKMe3SAPATGG [23-residue histone peptide containing H3K27Me3 (histone 3, 12–34)]
demethylation (UTY(KDM6C) [4]): catalyzes the demethylation | minor demethylation product (UTY(KDM6C) [4]; didemethylation, smaller amount): H3K27Me1 | demethylation (UTY(KDM6C) [4]; listed as H3K27Me3 peptide (histone 3, 12–34)): demethylation was observed | predominant demethylation product (UTY(KDM6C) [4]; single demethylation): H3K27Me2

Compound: GGKAPRKQLATKAARKMe3SAPATGGV [24-residue histone peptide containing H3K27Me3]
demethylation (KDM6): KDM6 catalyzed demethylation

Compound: O=C(O)CCC(=O)C(=O)O [2OG, 2-oxoglutarate]
succinate produced [6]: 7 ± 0.5 nmol | succinate produced [7]: 7 ± 0.5 nmol
